Measurements: ChEMBL document CHEMBL1153185, “Two novel neo-clerodane diterpenoids from Scutellaria barbata” (Bioorg Med Chem Lett, 2010)
Counter-ions that a name gives are not always drawn. Activity calls are given as the source filed them. No cut-off for these calls is given here.

Assays:
Type in all cases: functional, cell-based
[1] = tested on: HL-60; experiment: Cytotoxicity against human HL60 cells by MTT assay
[2] = tested on: MCF7; experiment: Cytotoxicity against human MCF7 cells by MTT assay
[3] = tested on: Lewis lung carcinoma; experiment: Cytotoxicity against mouse LLC by MTT assay

SMILES | Activity [1] | Activity [2] | Activity [3] | IC50 [1] [µM]
C[C@@]12[C@@H](OC(=O)c3cccnc3)[C@H](OC(=O)c3ccccc3)[C@](C)(O)[C@](C)(/C=C/C3=CC(=O)OC3)[C@H]1CC=C[C@]2(C)O | inactive | inactive | inactive | 
CC(=O)O[C@@H](CC1=CC(=O)OC1)[C@]1(C)[C@H]2CCC=C(C)[C@]2(C)[C@@H](OC(=O)c2cccnc2)[C@H](OC(=O)c2ccccc2)[C@]1(C)O [BARBATELLARINES B] |  |  |  | 41.4
COc1cccc2c1C(=O)c1c(O)c3c(c(O)c1C2=O)C[C@@](O)(C(=O)CO)C[C@@H]3O[C@H]1C[C@H](N)[C@H](O)[C@H](C)O1 [DOXORUBICIN HYDROCHLORIDE] |  |  |  | 0.18
